Test results as given in the supplement of paper PMC10307832.

Key:
Test in all cases: relative viability (nuclei count vs DMSO), 5 days (fraction); higher = more cells survive
[1] = compound: C1=CC=C(C(=C1)C2=CC=C(C=C2)C3=CSC4=C3C(=C(C(=O)N4)C#N)O)O + N=C(N)NC(=N)NCCc1ccccc1 [Phenformin] (partner 250 µM)
Method in brief: (§1)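 Cells from lung cancer lines were seeded into 1536-well plates and, one day later, dosed by pin tool. Treatments were either a single drug or a fixed dose of an anchor drug with five library-drug doses (not always all listed) in √10 steps. After 5 days, nuclei were stained in a one-step fixation (final 0.05% Triton X-100, 1% formaldehyde, 1 ug/ml Hoechst) and counted on 4× images, and relative viability is the treated-to-vehicle nuclei ratio, as the median of duplicate plates.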

[2] = compound: C1=CC=C(C(=C1)C2=CC=C(C=C2)C3=CSC4=C3C(=C(C(=O)N4)C#N)O)O + Nc1ncn([C@H]2C[C@H](O)[C@@H](CO)O2)c(=O)n1 [Decitabine] (partner 2 µM)
Method in brief: as §1

TGX 221 + Alpelisib = compound: CC1=CN2C(=O)C=C(N=C2C(=C1)C(C)NC3=CC=CC=C3)N4CCOCC4 [TGX 221] + Cc1nc(NC(=O)N2CCC[C@H]2C(N)=O)sc1-c1ccnc(C(C)(C)C(F)(F)F)c1 [Alpelisib] (partner 2 µM)
Method in brief: as §1

Ricolinostat + Lapatinib = compound: O=C(CCCCCCNC(=O)c1cnc(N(c2ccccc2)c2ccccc2)nc1)NO [Ricolinostat] + CS(=O)(=O)CCNCc1ccc(-c2ccc3ncnc(Nc4ccc(OCc5cccc(F)c5)c(Cl)c4)c3c2)o1 [Lapatinib] (partner 2 µM)
Method in brief: as §1

| Cell Line | relative viability ([1]; first compound 0.08 µM) | relative viability ([1]; first compound 0.253 µM) | relative viability ([1]; first compound 0.8 µM) | relative viability ([1]; first compound 2.53 µM) | relative viability ([1]; first compound 8 µM) | relative viability ([2]; first compound 0.08 µM) | relative viability ([2]; first compound 0.253 µM) | relative viability ([2]; first compound 0.8 µM) | relative viability ([2]; first compound 2.53 µM) | relative viability ([2]; first compound 8 µM) | relative viability (TGX 221 + Alpelisib; first compound 0.08 µM) | relative viability (TGX 221 + Alpelisib; first compound 0.253 µM) | relative viability (TGX 221 + Alpelisib; first compound 0.8 µM) | relative viability (TGX 221 + Alpelisib; first compound 2.53 µM) | relative viability (TGX 221 + Alpelisib; first compound 8 µM) | relative viability (Ricolinostat + Lapatinib; first compound 0.253 µM) | relative viability (Ricolinostat + Lapatinib; first compound 0.8 µM) | relative viability (Ricolinostat + Lapatinib; first compound 2.53 µM) | relative viability (Ricolinostat + Lapatinib; first compound 0.08 µM) |
| --- | --- | --- | --- | --- | --- | --- | --- | --- | --- | --- | --- | --- | --- | --- | --- | --- | --- | --- | --- |
| NCI-H1793 | 0.306 | 0.427 | 0.372 | 0.318 | 0.229 | 0.483 | 0.5 | 0.483 | 0.499 | 0.49 | 0.611 | 0.503 | 0.482 | 0.446 | 0.406 | 0.739 | 0.61 | 0.895 |  |
| NCI-H1915 | 0.342 | 0.32 |  | 0.376 | 0.325 | 0.263 | 0.269 | 0.251 | 0.252 | 0.262 | 1 | 0.999 | 1.08 | 1.1 | 1.01 | 0.958 | 0.858 | 0.965 | 0.965 |
| NCI-H1944 | 0.155 | 0.207 | 0.166 | 0.215 | 0.175 | 0.454 | 0.44 | 0.39 | 0.468 | 0.465 | 0.77 | 0.713 | 0.554 | 0.488 | 0.422 | 0.85 | 0.819 | 0.854 | 0.638 |
| NCI-H1975 | 0.379 | 0.425 | 0.403 | 0.393 | 0.394 | 0.384 | 0.4 | 0.41 | 0.403 | 0.426 | 0.585 | 0.454 | 0.465 | 0.446 | 0.362 | 0.914 |  | 0.664 | 0.878 |
| NCI-H1993 | 0.49 | 0.424 | 0.55 | 0.473 | 0.529 | 0.633 | 0.672 | 0.622 | 0.62 | 0.572 | 0.64 | 0.57 | 0.723 | 0.616 | 0.651 | 0.867 | 0.796 | 0.91 | 0.714 |
| NCI-H2009 | 0.443 | 0.505 | 0.457 | 0.496 | 0.387 | 0.384 | 0.47 | 0.415 | 0.372 | 0.36 | 1.16 | 1.07 | 1.1 | 0.907 | 0.733 | 0.887 | 0.832 | 0.74 | 0.812 |
| NCI-H2023 | 0.342 | 0.351 | 0.429 | 0.466 | 0.37 | 0.242 | 0.247 | 0.197 | 0.222 | 0.196 | 0.599 | 0.452 | 0.524 | 0.311 | 0.268 | 0.91 | 0.792 | 0.487 | 0.552 |
| NCI-H2085 | 0.765 | 0.951 | 0.665 | 0.685 | 0.568 | 0.543 | 0.615 | 0.499 | 0.528 | 0.495 | 0.94 | 0.689 | 0.57 | 0.424 | 0.406 | 0.679 | 0.715 | 0.573 |  |
| NCI-H2087 | 0.441 | 0.481 | 0.464 | 0.366 | 0.362 | 0.279 | 0.31 | 0.284 | 0.259 | 0.254 | 0.978 | 1.13 | 1.13 | 1.12 | 1.31 | 1.05 | 0.921 | 0.698 | 1.07 |
| NCI-H2126 | 0.504 | 0.575 | 0.471 | 0.527 | 0.621 | 0.646 | 0.617 | 0.578 | 0.622 | 0.513 | 0.708 | 0.652 | 0.611 | 0.58 | 0.617 | 0.751 | 0.719 | 0.801 | 0.615 |
| NCI-H2170 | 0.38 | 0.423 | 0.441 | 0.403 | 0.375 | 0.551 | 0.467 | 0.467 | 0.454 | 0.446 | 0.754 | 0.704 | 0.747 | 0.7 | 0.682 | 0.277 | 0.28 | 0.264 | 0.23 |
| NCI-H2347 | 0.265 | 0.429 | 0.496 | 0.342 | 0.419 | 0.629 | 0.605 | 0.578 | 0.675 | 0.566 | 0.994 | 0.911 | 0.955 | 0.605 | 0.756 | 0.908 | 0.874 | 0.82 | 0.849 |
| NCI-H2405 | 0.266 | 0.381 | 0.385 | 0.445 | 0.37 | 0.798 |  | 0.774 | 0.66 | 0.725 | 0.586 | 0.615 | 0.582 | 0.531 | 0.463 | 1.04 | 1.08 | 1.04 | 0.858 |
| NCI-H3122 | 0.352 | 0.364 | 0.432 | 0.387 | 0.37 | 0.513 | 0.435 | 0.362 | 0.421 | 0.535 | 0.758 | 0.735 | 0.717 | 0.681 | 0.787 | 1.01 | 1.07 | 0.973 | 0.972 |
| PC-3 [JPC-3] | 0.452 | 0.454 | 0.44 | 0.488 | 0.516 | 0.806 | 0.879 | 0.844 | 0.956 | 0.805 | 1.01 | 0.978 | 1 | 0.929 | 0.894 | 0.466 | 0.414 | 0.475 | 0.351 |
| PC-14 | 0.489 | 0.676 | 0.561 | 0.555 | 0.355 | 0.222 | 0.242 | 0.24 | 0.225 | 0.195 | 1.01 | 0.822 | 0.817 | 0.919 | 0.857 | 0.291 | 0.263 | 0.172 | 0.243 |
| RERF-LC-KJ | 0.397 | 0.492 | 0.412 | 0.454 | 0.352 | 0.762 | 0.756 | 0.609 | 0.819 | 0.681 | 0.66 | 0.713 | 0.603 | 0.644 | 0.637 | 0.864 | 0.858 | 0.808 | 0.828 |
